Literature values in patent publication US9381163B2, “Floating capsules encapsulating particles loaded with one or more drugs” (NANYANG TECHNOLOGICAL UNIVERSITY, priority 2012, dated 2016).

For metoprolol tartrate salt, the “log P” value is given as 1.6.
